From patent EP4745137A1 (Gluetacs Therapeutics (Shanghai) Co., Ltd., priority 2023, dated 2025)

Columns and labels:
Type in all cases: cell-based
Settings in all cases: 24 hours of compound treatment, 50 nM and 500 nM tested (concentration behind the class not stated)
IKZF1 = target: T1, IKZF1 (Homo sapiens, UniProt Q13422+Q96SW2); experiment: Western-blot assay of substrate protein degradation in hPBMCs, IKZF1
T1 construct: endogenous in cells; host or cells: hPBMCs (Milecell Biotechnologies)

IKZF3 = target: T2, IKZF3 (Homo sapiens, UniProt Q96SW2+Q9UKT9); experiment: Western-blot assay of substrate protein degradation in hPBMCs, IKZF3
T2 construct: endogenous in cells; host or cells: hPBMCs (Milecell Biotechnologies)

IKZF2 = target: T3, IKZF2 (Homo sapiens, UniProt Q96SW2+Q9UKS7); experiment: Western-blot assay of substrate protein degradation in hPBMCs, IKZF2
T3 construct: endogenous in cells; host or cells: hPBMCs (Milecell Biotechnologies)

GSPT1 = target: T4, GSPT1 (Homo sapiens, UniProt P15170+Q96SW2); experiment: Western-blot assay of substrate protein degradation in hPBMCs, GSPT1
T4 construct: endogenous in cells; host or cells: hPBMCs (Milecell Biotechnologies)

CK1α = target: T5, CK1α (Homo sapiens, UniProt P48729+Q96SW2); experiment: Western-blot assay of substrate protein degradation in hPBMCs, CK1α
T5 construct: endogenous in cells; host or cells: hPBMCs (Milecell Biotechnologies)

WEE1 = target: T6, WEE1 (Homo sapiens, UniProt P30291+Q96SW2); experiment: Western-blot assay of substrate protein degradation in hPBMCs, WEE1
T6 construct: endogenous in cells; host or cells: hPBMCs (Milecell Biotechnologies)
T6 sequence (P30291 whole entry): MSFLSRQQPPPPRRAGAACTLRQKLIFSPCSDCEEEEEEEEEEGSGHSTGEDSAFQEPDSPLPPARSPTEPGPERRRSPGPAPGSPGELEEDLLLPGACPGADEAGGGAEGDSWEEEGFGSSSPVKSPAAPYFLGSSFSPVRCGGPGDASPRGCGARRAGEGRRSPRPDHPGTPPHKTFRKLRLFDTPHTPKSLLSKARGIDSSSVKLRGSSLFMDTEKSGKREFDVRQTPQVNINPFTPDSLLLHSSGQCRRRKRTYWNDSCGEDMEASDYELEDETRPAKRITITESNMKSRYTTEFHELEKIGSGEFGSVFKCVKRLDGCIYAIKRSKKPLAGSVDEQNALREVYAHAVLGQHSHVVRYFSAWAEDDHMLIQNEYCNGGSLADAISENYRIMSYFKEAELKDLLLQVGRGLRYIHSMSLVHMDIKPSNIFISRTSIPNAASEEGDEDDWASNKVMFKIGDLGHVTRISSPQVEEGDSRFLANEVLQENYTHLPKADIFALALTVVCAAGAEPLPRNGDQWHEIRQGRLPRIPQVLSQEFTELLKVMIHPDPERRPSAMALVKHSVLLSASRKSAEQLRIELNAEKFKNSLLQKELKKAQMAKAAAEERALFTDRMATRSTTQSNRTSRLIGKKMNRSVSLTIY
T6 sequence (Q96SW2 whole entry): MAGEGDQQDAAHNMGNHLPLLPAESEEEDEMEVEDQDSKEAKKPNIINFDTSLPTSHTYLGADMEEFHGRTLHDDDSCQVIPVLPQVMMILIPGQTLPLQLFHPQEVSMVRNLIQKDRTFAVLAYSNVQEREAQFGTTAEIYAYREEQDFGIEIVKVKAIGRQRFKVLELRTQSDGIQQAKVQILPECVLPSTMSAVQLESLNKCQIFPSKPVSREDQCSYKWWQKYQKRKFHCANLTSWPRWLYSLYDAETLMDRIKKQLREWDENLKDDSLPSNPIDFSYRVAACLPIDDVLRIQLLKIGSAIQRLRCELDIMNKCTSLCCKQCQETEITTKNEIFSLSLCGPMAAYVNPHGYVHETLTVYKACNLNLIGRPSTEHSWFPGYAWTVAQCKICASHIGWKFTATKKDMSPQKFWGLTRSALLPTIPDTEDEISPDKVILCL
T6 sequence (Q16531 whole entry partner): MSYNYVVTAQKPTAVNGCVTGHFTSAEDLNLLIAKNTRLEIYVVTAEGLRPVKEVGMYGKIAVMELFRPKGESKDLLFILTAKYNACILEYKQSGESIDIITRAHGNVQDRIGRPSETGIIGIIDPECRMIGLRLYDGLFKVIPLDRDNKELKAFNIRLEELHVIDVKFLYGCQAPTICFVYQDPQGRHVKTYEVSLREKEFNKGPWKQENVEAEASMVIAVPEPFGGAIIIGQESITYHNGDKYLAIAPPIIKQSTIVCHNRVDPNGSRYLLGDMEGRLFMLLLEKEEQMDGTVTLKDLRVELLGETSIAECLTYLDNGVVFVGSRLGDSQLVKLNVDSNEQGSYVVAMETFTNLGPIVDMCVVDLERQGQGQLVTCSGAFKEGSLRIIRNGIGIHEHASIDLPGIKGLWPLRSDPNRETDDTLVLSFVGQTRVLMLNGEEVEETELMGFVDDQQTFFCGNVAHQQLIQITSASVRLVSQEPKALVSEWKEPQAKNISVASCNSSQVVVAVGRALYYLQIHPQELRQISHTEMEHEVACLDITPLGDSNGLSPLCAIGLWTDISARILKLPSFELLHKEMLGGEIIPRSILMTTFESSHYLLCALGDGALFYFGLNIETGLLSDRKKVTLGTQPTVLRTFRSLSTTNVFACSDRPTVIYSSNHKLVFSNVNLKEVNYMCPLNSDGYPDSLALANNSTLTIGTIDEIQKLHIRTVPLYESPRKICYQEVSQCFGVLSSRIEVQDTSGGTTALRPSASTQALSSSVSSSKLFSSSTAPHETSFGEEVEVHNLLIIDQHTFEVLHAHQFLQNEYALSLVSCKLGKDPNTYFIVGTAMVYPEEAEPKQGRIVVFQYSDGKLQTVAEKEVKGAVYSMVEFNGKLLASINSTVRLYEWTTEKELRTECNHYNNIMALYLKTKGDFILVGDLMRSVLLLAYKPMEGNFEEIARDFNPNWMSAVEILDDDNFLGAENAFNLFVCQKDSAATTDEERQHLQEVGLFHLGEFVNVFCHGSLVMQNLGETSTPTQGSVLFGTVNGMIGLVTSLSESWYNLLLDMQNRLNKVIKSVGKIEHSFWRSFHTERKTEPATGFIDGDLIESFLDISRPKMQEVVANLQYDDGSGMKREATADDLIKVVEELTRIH

T1 sequence (Q13422 whole entry): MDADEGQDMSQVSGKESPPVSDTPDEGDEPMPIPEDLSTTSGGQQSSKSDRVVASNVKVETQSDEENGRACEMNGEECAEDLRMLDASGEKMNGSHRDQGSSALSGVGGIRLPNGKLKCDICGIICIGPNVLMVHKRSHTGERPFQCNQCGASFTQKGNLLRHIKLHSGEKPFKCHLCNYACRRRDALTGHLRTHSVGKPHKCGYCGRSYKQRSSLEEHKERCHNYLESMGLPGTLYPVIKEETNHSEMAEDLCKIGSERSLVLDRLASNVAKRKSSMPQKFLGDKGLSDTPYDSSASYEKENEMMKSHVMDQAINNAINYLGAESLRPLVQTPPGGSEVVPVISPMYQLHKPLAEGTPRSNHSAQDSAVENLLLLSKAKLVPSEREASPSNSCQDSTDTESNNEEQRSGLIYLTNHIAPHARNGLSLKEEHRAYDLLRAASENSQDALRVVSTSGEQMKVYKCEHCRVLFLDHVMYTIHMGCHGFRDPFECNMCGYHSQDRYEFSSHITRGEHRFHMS
T1 sequence (Q96SW2 whole entry): as the sequence (Q96SW2 whole entry) above
T1 sequence (Q16531 whole entry partner): as the sequence (Q16531 whole entry partner) above
T2 sequence (Q9UKT9 whole entry): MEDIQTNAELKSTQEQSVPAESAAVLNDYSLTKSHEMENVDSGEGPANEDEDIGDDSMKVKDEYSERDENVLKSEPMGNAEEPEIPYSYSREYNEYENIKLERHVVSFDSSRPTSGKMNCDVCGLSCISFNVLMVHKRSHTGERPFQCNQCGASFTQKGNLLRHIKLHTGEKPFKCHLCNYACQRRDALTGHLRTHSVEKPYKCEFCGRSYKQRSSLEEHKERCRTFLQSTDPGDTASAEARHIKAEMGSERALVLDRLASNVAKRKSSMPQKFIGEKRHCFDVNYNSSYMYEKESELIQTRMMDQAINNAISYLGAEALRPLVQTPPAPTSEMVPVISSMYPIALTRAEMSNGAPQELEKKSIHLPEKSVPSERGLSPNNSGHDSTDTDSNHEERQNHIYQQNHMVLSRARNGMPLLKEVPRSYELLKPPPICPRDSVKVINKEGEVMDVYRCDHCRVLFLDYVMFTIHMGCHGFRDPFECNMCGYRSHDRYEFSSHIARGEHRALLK
T2 sequence (Q96SW2 whole entry): as the sequence (Q96SW2 whole entry) above
T2 sequence (Q16531 whole entry partner): as the sequence (Q16531 whole entry partner) above
T5 sequence (P48729 whole entry): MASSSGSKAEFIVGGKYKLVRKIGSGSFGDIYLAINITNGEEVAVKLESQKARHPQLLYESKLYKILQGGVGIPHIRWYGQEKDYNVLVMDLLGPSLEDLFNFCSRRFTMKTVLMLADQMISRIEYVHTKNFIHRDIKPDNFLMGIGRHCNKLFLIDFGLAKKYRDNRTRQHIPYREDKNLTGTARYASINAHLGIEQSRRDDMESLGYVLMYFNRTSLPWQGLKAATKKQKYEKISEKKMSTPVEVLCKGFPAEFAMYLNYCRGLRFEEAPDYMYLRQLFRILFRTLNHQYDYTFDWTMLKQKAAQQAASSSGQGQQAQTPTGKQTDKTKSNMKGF
T5 sequence (Q96SW2 whole entry): as the sequence (Q96SW2 whole entry) above
T5 sequence (Q16531 whole entry partner): as the sequence (Q16531 whole entry partner) above
T4 sequence (P15170 whole entry): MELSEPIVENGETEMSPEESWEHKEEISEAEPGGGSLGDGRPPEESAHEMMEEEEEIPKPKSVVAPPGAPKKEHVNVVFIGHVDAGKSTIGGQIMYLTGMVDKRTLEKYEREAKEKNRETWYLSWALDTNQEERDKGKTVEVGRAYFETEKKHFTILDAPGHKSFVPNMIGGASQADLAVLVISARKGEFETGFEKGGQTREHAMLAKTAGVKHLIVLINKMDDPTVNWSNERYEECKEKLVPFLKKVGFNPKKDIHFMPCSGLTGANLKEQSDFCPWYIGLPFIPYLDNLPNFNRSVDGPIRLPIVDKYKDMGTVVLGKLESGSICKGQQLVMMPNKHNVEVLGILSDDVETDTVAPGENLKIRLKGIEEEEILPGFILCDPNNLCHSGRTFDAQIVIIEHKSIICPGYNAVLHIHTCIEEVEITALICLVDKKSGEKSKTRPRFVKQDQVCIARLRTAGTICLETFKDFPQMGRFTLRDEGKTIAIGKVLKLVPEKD
T4 sequence (Q96SW2 whole entry): as the sequence (Q96SW2 whole entry) above
T4 sequence (Q16531 whole entry partner): as the sequence (Q16531 whole entry partner) above

Structure (SMILES) | IKZF 1 substrate protein remaining % (IKZF1) | IKZF3 substrate protein remaining % (IKZF3) | IKZF2 substrate protein remaining % (IKZF2) | GSPT1 substrate protein remaining % (GSPT1) | CK1a substrate protein remaining % (CK1α) | Weel substrate protein remaining % (WEE1)
O=C1CCC(N2C(=O)c3ccc(CN4CCN(c5ncnc6sc(-c7ccccc7)cc56)CC4)cc3C2=O)C(=O)N1 (stereo not drawn) [GT-06310, 2-(2,6-dioxopiperidin-3-yl)-5-((4-(6-phenylthieno[2,3-d]pyrimidin-4-yl)piperazin-1-yl)methyl)isoindoline-1,3-dione] | B (80%< substrate protein remaining %≤ 100%) | A (0% ≤ substrate protein remaining % ≤ 80%) | A (0% ≤ substrate protein remaining % ≤ 80%) | A (0% ≤ substrate protein remaining % ≤ 80%) | A (0% ≤ substrate protein remaining % ≤ 80%) | B (80%< substrate protein remaining %≤ 100%)
Cc1nc(N2CCN(Cc3ccc4c(c3)C(=O)N(C3CCC(=O)NC3=O)C4=O)CC2)c2ccsc2n1 (stereo not drawn) [GT-06347, 2-(2,6-dioxopiperidin-3-yl)-5-((4-(2-methylthieno[2,3-d]pyrimidin-4-yl)piperazin-1-yl)methyl)isoindoline-1,3-dione] | A (0% ≤ substrate protein remaining % ≤ 80%) | A (0% ≤ substrate protein remaining % ≤ 80%) | A (0% ≤ substrate protein remaining % ≤ 80%) | B (80%< substrate protein remaining %≤ 100%) | B (80%< substrate protein remaining %≤ 100%) | B (80%< substrate protein remaining %≤ 100%)
O=C1CCC(N2C(=O)c3ccc(CN4CCN(c5ccc(Cl)cc5Cl)CC4)cc3C2=O)C(=O)N1 (stereo not drawn) [GT-06355, 5-((4-(2,4-dichlorophenyl)piperazin-1-yl)methyl)-2-(2,6-dioxopiperidin-3-yl)isoindoline-1,3-dione] | B (80%< substrate protein remaining %≤ 100%) | B (80%< substrate protein remaining %≤ 100%) | B (80%< substrate protein remaining %≤ 100%) | A (0% ≤ substrate protein remaining % ≤ 80%) | B (80%< substrate protein remaining %≤ 100%) | B (80%< substrate protein remaining %≤ 100%)
O=C1CCC(N2C(=O)c3ccc(CN4CCN(c5cc(Cl)ccc5Cl)CC4)cc3C2=O)C(=O)N1 (stereo not drawn) [GT-06356, 5-((4-(2,5-dichlorophenyl)piperazin-1-yl)methyl)-2-(2,6-dioxopiperidin-3-yl)isoindoline-1,3-dione] | B (80%< substrate protein remaining %≤ 100%) | B (80%< substrate protein remaining %≤ 100%) | B (80%< substrate protein remaining %≤ 100%) | A (0% ≤ substrate protein remaining % ≤ 80%) | B (80%< substrate protein remaining %≤ 100%) | B (80%< substrate protein remaining %≤ 100%)
O=C1CCC(N2C(=O)c3ccc(CN4CCC(c5cccc(Cl)c5Cl)CC4)cc3C2=O)C(=O)N1 (stereo not drawn) [GT-06358, 5-((4-(2,3-dichlorophenyl)piperidin-1-yl)methyl)-2-(2,6-dioxopiperidin-3-yl)isoindoline-1,3-dione] | A (0% ≤ substrate protein remaining % ≤ 80%) | B (80%< substrate protein remaining %≤ 100%) | A (0% ≤ substrate protein remaining % ≤ 80%) | A (0% ≤ substrate protein remaining % ≤ 80%) | B (80%< substrate protein remaining %≤ 100%) | A (0% ≤ substrate protein remaining % ≤ 80%)
O=C1CCC(N2C(=O)c3ccc(CN4CCC(c5cccc(F)c5F)CC4)cc3C2=O)C(=O)N1 (stereo not drawn) [GT-06359, 5-((4-(2,3-difluorophenyl)piperidin-1-yl)methyl)-2-(2,6-dioxopiperidin-3-yl)isoindoline-1,3-dione] | A (0% ≤ substrate protein remaining % ≤ 80%) | B (80%< substrate protein remaining %≤ 100%) | A (0% ≤ substrate protein remaining % ≤ 80%) | A (0% ≤ substrate protein remaining % ≤ 80%) | B (80%< substrate protein remaining %≤ 100%) | A (0% ≤ substrate protein remaining % ≤ 80%)
O=C1CCC(N2C(=O)c3ccc(CN4CCC(c5cccc(F)c5Cl)CC4)cc3C2=O)C(=O)N1 (stereo not drawn) [GT-06360, 5-((4-(2-chloro-3-fluorophenyl)piperidin-1-yl)methyl)-2-(2,6-dioxopiperidin-3-yl)isoindoline-1,3-dione] | A (0% ≤ substrate protein remaining % ≤ 80%) | B (80%< substrate protein remaining %≤ 100%) | A (0% ≤ substrate protein remaining % ≤ 80%) | A (0% ≤ substrate protein remaining % ≤ 80%) | B (80%< substrate protein remaining %≤ 100%) | A (0% ≤ substrate protein remaining % ≤ 80%)
O=C1CCC(N2C(=O)c3ccc(CN4CCN(c5ccc(F)cc5F)CC4)cc3C2=O)C(=O)N1 (stereo not drawn) [GT-06361, 5-((4-(2,4-difluorophenyl)piperazin-1-yl)methyl)-2-(2,6-dioxopiperidin-3-yl)isoindoline-1,3-dione] | B (80%< substrate protein remaining %≤ 100%) | B (80%< substrate protein remaining %≤ 100%) | B (80%< substrate protein remaining %≤ 100%) | A (0% ≤ substrate protein remaining % ≤ 80%) | B (80%< substrate protein remaining %≤ 100%) | B (80%< substrate protein remaining %≤ 100%)
O=C1CCC(N2C(=O)c3ccc(CN4CCN(c5cc(F)ccc5F)CC4)cc3C2=O)C(=O)N1 (stereo not drawn) [GT-06362, 5-((4-(2,5-difluorophenyl)piperazin-1-yl)methyl)-2-(2,6-dioxopiperidin-3-yl)isoindoline-1,3-dione] | B (80%< substrate protein remaining %≤ 100%) | B (80%< substrate protein remaining %≤ 100%) | B (80%< substrate protein remaining %≤ 100%) | A (0% ≤ substrate protein remaining % ≤ 80%) | B (80%< substrate protein remaining %≤ 100%) | B (80%< substrate protein remaining %≤ 100%)
O=C1CCC(N2C(=O)c3ccc(CN4CCN(c5c(F)cccc5F)CC4)cc3C2=O)C(=O)N1 (stereo not drawn) [GT-06363, 5-((4-(2,6-difluorophenyl)piperazin-1-yl)methyl)-2-(2,6-dioxopiperidin-3-yl)isoindoline-1,3-dione] | A (0% ≤ substrate protein remaining % ≤ 80%) | B (80%< substrate protein remaining %≤ 100%) | B (80%< substrate protein remaining %≤ 100%) | A (0% ≤ substrate protein remaining % ≤ 80%) | B (80%< substrate protein remaining %≤ 100%) | B (80%< substrate protein remaining %≤ 100%)
O=C1CCC(N2C(=O)c3ccc(CN4CCN(c5ccc(F)c(F)c5)CC4)cc3C2=O)C(=O)N1 (stereo not drawn) [GT-06364, 5-((4-(3,4-difluorophenyl)piperazin-1-yl)methyl)-2-(2,6-dioxopiperidin-3-yl)isoindoline-1,3-dione] | B (80%< substrate protein remaining %≤ 100%) | B (80%< substrate protein remaining %≤ 100%) | B (80%< substrate protein remaining %≤ 100%) | A (0% ≤ substrate protein remaining % ≤ 80%) | B (80%< substrate protein remaining %≤ 100%) | B (80%< substrate protein remaining %≤ 100%)
O=C1CCC(N2C(=O)c3ccc(CN4CCN(c5cc(F)cc(F)c5)CC4)cc3C2=O)C(=O)N1 (stereo not drawn) [GT-06365, 5-((4-(3,5-difluorophenyl)piperazin-1-yl)methyl)-2-(2,6-dioxopiperidin-3-yl)isoindoline-1,3-dione] | B (80%< substrate protein remaining %≤ 100%) | B (80%< substrate protein remaining %≤ 100%) | B (80%< substrate protein remaining %≤ 100%) | A (0% ≤ substrate protein remaining % ≤ 80%) | B (80%< substrate protein remaining %≤ 100%) | B (80%< substrate protein remaining %≤ 100%)
Cc1ccc(N2CCN(Cc3ccc4c(c3)C(=O)N(C3CCC(=O)NC3=O)C4=O)CC2)c(C)c1 (stereo not drawn) [GT-06366, 5-((4-(2,4-dimethylphenyl)piperazin-1-yl)methyl)-2-(2,6-dioxopiperidin-3-yl)isoindoline-1,3-dione] | B (80%< substrate protein remaining %≤ 100%) | A (0% ≤ substrate protein remaining % ≤ 80%) | A (0% ≤ substrate protein remaining % ≤ 80%) | A (0% ≤ substrate protein remaining % ≤ 80%) | B (80%< substrate protein remaining %≤ 100%) | B (80%< substrate protein remaining %≤ 100%)
